Test results published in patent US5665769A, “Pharmaceutical composition for preventing and treating retinal diseases” (Senju Pharmaceuticals Co., Ltd., priority 1993, dated 1997).

Tested on: bovine retinal homogenate
Experiment: Ferrous chloride-induced peroxidation of bovine retinal homogenate in vitro, TBA value (Experiment 1 (A))
Assay type: biochemical
Conditions: 10^-4 M
Description: (A) In vitro experiment using a bovine retinal homogenate:
Effects of 2-O-octadecylascorbic acid on the peroxidation induced by adding ferrous chloride to a bovine retinal homogenate were examined.
(1) Retinae were removed from bovine eyeballs (1/2 eye). Physiological saline was added to the retinae to prepare bovine retinal homogenates.
(2) Ferrous chloride (0.5 mM, dissolved in distilled water) was added to each of the retinal homogenates obtained in the above. Further, 2-O-octadecylascorbic acid and α-tocopherol were added to the resulting homogenates to final concentrations of the reaction mixtures of 10^-4 M, respectively. Further, distilled water was added to each of the homogenates to adjust a total volume to 1 ml. 2-O-octadecylascorbic acid and α-tocopherol were dissolved and diluted with ethanol. Thus, the final concentrations of ethanol in all of the reaction mixtures were adjusted to 1%. Then, the mixtures were subjected to reaction at 37° C. for 1 hour.
(3) 0.35% thiobarbituric acid (hereinafter referred to as TBA) reagent (50% aqueous acetic acid solution)(1 ml) was added to the reaction mixtures or standard solutions of the retinal homogenates obtained in the above (2). The mixtures were subjected to reaction in boiling water at 100° C. for 1 hour. After water cooling, n-butanol (2 ml) was added, and the mixtures were shaken for 5 minutes and centrifuged at 3000 rpm for 10 minutes. Fluorescence intensities (excitation wave length: 515 nm, emission wave length: 553 nm) were determined for the n-butanol layer. Proteins were determined using Bio-Rad Protein Assay Kit (trade name).

## Cc1c(C)c2c(c(C)c1O)CCC(C)(CCCC(C)CCCC(C)CCCC(C)C)O2 (stereo not drawn) [α-Tocopherol, α-tocopherol, reference compound]
0.5 mM ferrous chloride, 37° C., 1 hour, mean ± S.D., n=3, p < 0.001 vs control
  Retina: TBA value: 2.38 ± 0.12 nM malondialdehyde/mg protein
Ferrous chloride control = 0, blank = 100, 60 min
  Inhibitory ratio: 61.6%
